Tested on: Phakopsora pachyrhizi
Test: Curative control of soy bean rust on soy beans (greenhouse test)
Type: in vivo
Settings: 300 ppm aqueous preparation sprayed to run-off after inoculation (curative); soy bean seedlings; assessed after 14 days; untreated plants 60% infected
Protocol: The spray soultions were prepared in several steps: The stock solution were prepared by adding a mixture of acetone and/or dimethylsulfoxide and the wetting agent/emulsifier Wettol, which is based on ethoxylated alkylphenoles, in a relation (volume) solvent-emulsifier of 99 to 1 to 25 mg of the compound to give a total of 10 ml. Water was then added to total volume of 100 ml. This stock solution was diluted with the described solvent-emulsifier-water mixture to the given concentration. 1. Curative Control of Soy Bean Rust on Soy Beans Caused by Phakopsora Pachyrhizi Leaves of pot-grown soy bean seedlings were inoculated with spores of Phakopsora pachyrhizi. To ensure the success of the artificial inoculation, the plants were transferred to a humid chamber with a relative humidity of about 95% and 20 to 24° C. for 24 h. The next day the plants were cultivated for 2 days in a greenhouse chamber at 23-27° C. and a relative humidity between 60 and 80%. Then the plants were sprayed to run-off with an aqueous suspension, containing the concentration of active ingredient or their mixture as described below. The plants were allowed to air-dry. Then the trial plants were cultivated for 14 days in a greenhouse chamber at 23-27° C. and a relative humidity between 60 and 80%. The extent of fungal attack on the leaves was visually assessed as % diseased leaf area.

SMILES | infection (extent of fungal attack on the leaves, visually assessed as % diseased leaf area)
CC(C)(C)C(O)(CCCCOc1ccccc1)Cn1nc[nH]c1=S (stereo not drawn) [Example 1, 1-(2-tert-Butyl-2-hydroxy-6-phenoxyhexyl)-1H-1,2,4-triazole-5(4H)-thione] | 0%
CC(C)(C)C(O)(CCCCOc1ccccc1F)Cn1nc[nH]c1=S (stereo not drawn) [Example 2, 1-[2-tert-Butyl-6-(2-fluorophenoxy)-2-hydroxyhexyl]-1H-1,2,4-triazole-5(4H)-thione] | 0%
CC(C)(C)C(O)(CCCCOc1ccc(F)cc1F)Cn1nc[nH]c1=S (stereo not drawn) [Example 3, 1-[2-tert-Butyl-6-(2,4-difluorophenoxy)-2-hydroxyhexyl]-1H-1,2,4-triazole-5(4H)-thione] | 0%
CC(C)(C)C(O)(CCCCOc1ccccc1Cl)Cn1nc[nH]c1=S (stereo not drawn) [Example 4, 1-[2-tert-Butyl-6-(2-chlorophenoxy)-2-hydroxyhexyl]-1H-1,2,4-triazole-5(4H)-thione] | 0%
CC(C)(C)C(O)(CCCCOc1ccc(Cl)cc1Cl)Cn1nc[nH]c1=S (stereo not drawn) [Example 5] | 0%
CC(C)(C)C(O)(CCCCOc1cccc(Cl)c1)Cn1nc[nH]c1=S (stereo not drawn) [Example 6, 1-[2-tert-Butyl-6-(3-chlorophenoxy)-2-hydroxyhexyl]-1H-1,2,4-triazole-5(4H)-thione] | 0%
CC(C)(C)C(O)(CCCCCOc1ccccc1F)Cn1nc[nH]c1=S (stereo not drawn) [Example 11, 1-[2-tert-butyl-7-(2-fluorophenoxy)-2-hydroxyheptyl]-1H-1,2,4-triazole-5(4H)-thione] | 0%
CC(C)(C)C(O)(CCCCCOc1ccc(F)cc1F)Cn1nc[nH]c1=S (stereo not drawn) [Example 13, 1-[2-tert-butyl-7-(2,4-difluorophenoxy)-2-hydroxyheptyl]-1H-1,2,4-triazole-5(4H)-thione] | 0%
CC(C)(C)C(O)(CCCCCOc1ccccc1Cl)Cn1nc[nH]c1=S (stereo not drawn) [Example 16, 1-[2-tert-butyl-7-(2-chlorophenoxy)-2-hydroxyheptyl]-1H-1,2,4-triazole-5(4H)-thione] | 0%
CC(C)(C)C(O)(CCCCCOc1cccc(Cl)c1)Cn1nc[nH]c1=S (stereo not drawn) [Example 17, 1-[2-tert-butyl-7-(3-chlorophenoxy)-2-hydroxyheptyl]-1H-1,2,4-triazole-5(4H)-thione] | 0%
CC(C)(C)C(O)(CCCCCOc1ccc(Cl)cc1)Cn1nc[nH]c1=S (stereo not drawn) [Example 18, 1-[2-tert-butyl-7-(4-chlorophenoxy)-2-hydroxyheptyl]-1H-1,2,4-triazole-5(4H)-thione] | 0%
Cc1ccc(OCCCCCC(O)(Cn2nc[nH]c2=S)C(C)(C)C)cc1 (stereo not drawn) [Example 20, 1-[2-tert-butyl-7-(4-methylphenoxy)-2-hydroxyheptyl]-1H-1,2,4-triazole-5(4H)-thione] | 0%
